What was measured:
[1] = biological target: T1, full-length NS3/4A protease (genotype 1b) (Hepatitis C virus genotype 1b, UniProt Q9WMX2); experiment: biochemical; conditions: IC50 Full-length NS3/4A, purified full-length NS3/4A, genotype 1b wild-type
T1 construct: wild-type HCV NS3 (HCV polyprotein residues 1027–1657); His-tag (N); made in house
Protocol: All assays were done in duplicate in black 384-well plates (Matrix Technologies). […] 200 nL of 10 mM compound (50 µM final concentrations) were then added and incubated for 5 minutes. Enzyme reactions were initiated with 10 µL of substrate Ac-DE-Dap(QXL520)-EE-Abu-ψ-[COO]AS-C(5-FAMsp)-NH2 (Anaspec) (1 µM final concentration), incubated for 6 minutes, and quenched by 10 µL of 10% SDS as a stop solution. Fluorescence intensity was monitored with a POLARstar OPTIMA microplate reader (BMG LABTECH). Each plate contained a total of 32 positive and 32 negative controls.
A series of compound concentrations (0 to 200 µM final concentration at 2-fold serial dilution) in 100% DMSO were prepared in a 384-well plate. 20 µL of enzyme solution was distributed to wells, and 0.5 µL of varying concentration of compounds were added and incubated for 5 minutes. The enzyme reaction was initiated by adding 5 µL of the substrate, and its activity was continuously monitored for 6 minutes. The IC50 values were calculated by fitting with the Hill equation (1), with OriginPro 8.5 (OriginLab, Inc.) where y is percent inhibition, x is inhibitor concentration, n is the slope of the concentration–response curve (Hill slope), and Vmax is maximal inhibition from two to four independent assays. [drawing 1] (1)

[2] = biological target: T2, full-length NS3/4A (Hepatitis C virus genotype 1b, UniProt Q9WMX2); experiment: SPR binding assay (dissociation equilibrium constant KD); conditions: 0–200 µM compound, single referenced with blank (ethanolamine)
T2 construct: wild-type HCV NS3 (HCV polyprotein residues 1027–1657); His-tag (N); made in house
T2 sequence (Q9WMX2 1658-1711): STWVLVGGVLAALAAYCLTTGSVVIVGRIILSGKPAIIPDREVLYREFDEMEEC
T2 sequence (Q9WMX2 1027-1657): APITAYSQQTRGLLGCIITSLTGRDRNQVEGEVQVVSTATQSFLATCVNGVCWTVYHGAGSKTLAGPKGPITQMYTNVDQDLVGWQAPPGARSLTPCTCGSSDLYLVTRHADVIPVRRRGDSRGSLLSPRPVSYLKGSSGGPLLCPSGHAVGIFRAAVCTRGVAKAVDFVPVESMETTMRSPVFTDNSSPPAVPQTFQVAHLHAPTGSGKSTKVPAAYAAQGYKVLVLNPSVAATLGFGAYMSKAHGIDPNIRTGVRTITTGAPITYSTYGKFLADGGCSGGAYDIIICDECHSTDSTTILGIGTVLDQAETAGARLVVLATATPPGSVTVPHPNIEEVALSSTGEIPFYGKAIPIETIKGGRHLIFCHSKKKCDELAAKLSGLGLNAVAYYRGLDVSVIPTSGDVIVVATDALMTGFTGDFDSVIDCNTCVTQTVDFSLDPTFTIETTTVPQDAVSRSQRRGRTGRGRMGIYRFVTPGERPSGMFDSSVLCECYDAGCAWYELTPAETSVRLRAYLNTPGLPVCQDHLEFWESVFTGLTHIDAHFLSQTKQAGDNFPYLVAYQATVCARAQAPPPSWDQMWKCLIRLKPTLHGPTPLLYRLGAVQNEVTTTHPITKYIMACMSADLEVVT
Protocol: The full-length NS3/4A enzyme was prepared in a storage buffer (50 mM HEPES, pH 7.6, 500 mM NaCl, 1 mM DTT, 0.2% Triton X-100, and 20% glycerol) and immobilized on a CM5 sensor chip using standard amine-coupling at 25°C with running buffer HBS-P (10 mM HEPES, 150 mM NaCl, 0.05% surfactant P-20, pH 7.4) using a Biacore T100 instrument. Flow channels 1 and 3 were activated by 1-ethyl-3-(3-dimethylaminopropyl) carbodiimide hydrocholoride (EDC)/N-hydroxy succinimide (NHS) mixture, and the activated surface was blocked by ethanolamine (pH 8.5) as controls. The NS3/4A enzyme was diluted in 10 mM sodium acetate (pH 5.0), and immobilized to flow channel 4 after sensor surface activation with EDC/NHS with a 7 min injection followed by ethanolamine blocking on unoccupied surface area. NS3/4A immobilization level was ∼8,500 response units (RU). An unrelated reference protein (92 kDa) was also immobilized to flow channel 2 as another control to be compared with NS3/4A (74.6 kDa). Fifteen initial hit compounds were prepared as 10 mM DMSO stock solutions. Compound solutions with a series of increasing concentrations (0–200 µM at 1.5-fold dilution) were applied to all four channels at a 10 µL/min flow rate at 25°C. Sensorgrams were analyzed using Biaevaluation software 2.0.3, and response unit difference (ΔRU) values at each concentration were measured during the equilibration phase. Data were either single referenced with a blank (enthanolamine) or double referenced with both blank and reference protein RU values. SigmaPlot 11.0 was used to fit the data to a single rectangular hyperbolic curve to determine KD values. The hyperbola function, y = ymax·x/(KD+x), was used to plot response units and corresponding concentration, where y is the response, ymax is the maximum response, and x is the compound concentration.

[3] = biological target: T3, Trypsin (Homo sapiens, UniProt P07477); experiment: Inhibitor selectivity assay, trypsin (fluorometric); type: biochemical
T3 construct: purchased Sigma
Protocol: (§1) To test for selectivity, two human serine proteases, Trypsin and Chymotrypsin (Sigma), were tested with the top two hit compounds from HTS using a fluorometric assay. The fluorogenic substrates used in this study were N-benzoyl-L-Arg-7-amido-4-methylcoumarin (Sigma) and N-succinyl-Ala-Ala-Phe-7-amido-4- methylcoumarin (Sigma) for trypsin and chymotrypsin, respectively. All assays were performed in 384-well black plates (Corning) in a total volume of 24 µL of PBS (pH 7.4) buffer containing 0.01% Triton, 0.1 mg/mL BSA, and 2 mM GSH in triplicate. A series of compound concentrations (0 to 200 µM final concentration at 2-fold serial dilution) in 100% DMSO was prepared in a 384-well plate. 20 µL of trypsin (0.01 mg/mL) and chymotrypsin (0.0001 mg/mL) solutions were distributed into wells, and 0.5 µL of varying concentration of compounds were added and incubated for 10 minutes. The enzyme reaction was initiated by adding 5 µL of the substrate (50 µM final concentration), and fluorescence intensity was continuously monitored at excitation/emission wavelengths of 350 nm/460 nm for 10 minutes.

[4] = biological target: T4, Chymotrypsin (Homo sapiens, UniProt P17538); experiment: Inhibitor selectivity assay, chymotrypsin (fluorometric); type: biochemical
T4 construct: purchased Sigma
T4 sequence (P17538 19-263): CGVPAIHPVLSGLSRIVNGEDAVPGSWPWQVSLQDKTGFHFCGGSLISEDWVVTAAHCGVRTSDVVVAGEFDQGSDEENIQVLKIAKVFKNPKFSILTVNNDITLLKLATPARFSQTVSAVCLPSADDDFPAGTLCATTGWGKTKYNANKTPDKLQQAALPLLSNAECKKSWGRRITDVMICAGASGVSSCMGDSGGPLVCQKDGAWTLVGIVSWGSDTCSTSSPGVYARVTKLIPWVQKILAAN
Protocol: as §1

[5] = Microsomal stability assay; type: in vitro ADME, mouse; conditions: Balb/c, mouse, microsomes, pH 7.4
Protocol: A typical incubation mixture (100 µL total volume) for the metabolic stability studies contained 1 µM (final concentration) test compounds, 0.5 mg/mL microsomal protein (pooled Balb/c mouse liver microsomes prepared as described previously), 100 mM Tris-HCl buffer (pH7.4), and NADPH-generating system (5 mM isocitric acid, 0.2 unit/mL isocitric acid dehydrogenase, 5 mM magnesium chloride, 1 mM NADP^+). After pre-incubation at 37°C for 5 minutes, the reactions were started by addition of NADP^+ and further incubated for another 0, 5, 10, and 20 minutes. For control experiments, NADPH and/or liver microsomes were omitted from these incubations. The reactions were terminated by adding 100 µL ice-cold acetonitrile containing phenytoin (1 µM) as an internal standard and kept on ice for 30 minutes, followed by centrifugation at 16,100 g for 15 minutes to obtain the supernatant. Aliquots (5 µL) were then analyzed for substrate disappearance using liquid chromatography-tandem mass spectrometry (Agilent 1200 HPLC interfaced with Applied Biosystems Qtrap 3200) equipped with an electrospray ion source. Chromatographic separation was carried out with a Waters XTerra MS C18 column (2.1×50 mm, 3.5 µm; Agilent Technologies, Santa Clara, CA). The mobile phases consisted of solvent A (0.1% (v/v) aqueous formic acid) and solvent B (acetonitrile). A 250 µL/min flow rate gradient was developed for each test compound over 10 minutes (Table S2 in File S1). Mass detection of test substrates and internal standard were followed in a positive ion mode by examining multiple reaction monitoring (MRM) pairs. The spraying needle voltage was set at 5000 V. Curtain gas was set at 20; gas 1 and gas 2 were set at 45 and 50, respectively; collision assisted dissociation gas was at medium; and the source heater probe temperature was at 500°C. The test compounds were quantified by comparing the ratio of ion currents obtained for the substrates and an internal standards calibration curve. Data acquisition and processing were accomplished using Analyst software (version 1.4.1; Applied Biosystems). Apparent half-lives (t1/2) for the disappearance of parent drugs were calculated from the pseudo-first-order rate constants (ke) obtained by linear regression of plots of log [drug remaining] versus time (GraphPad Prism 5 software, La Jolla, CA) using the equation: t1/2 = 0.693/ke.

T1 sequence (Q9WMX2 1658-1711): as the sequence (Q9WMX2 1658-1711) above
T1 sequence (Q9WMX2 1027-1657): as the sequence (Q9WMX2 1027-1657) above

## O=C1c2c(O)ccc(O)c2C(=O)c2c(NCCNCCO)ccc(NCCNCCO)c21 [Compound 4, mitoxantrone, reference compound]
[1]
  IC50: 3.1 ± 0.1 µM
[2]
  SPR binding pattern to NS3/4A: non-specific binding patterns
[3]; 100 µM compound, read-out: Trypsin % Inh at 100 µM
  inhibition at 100 µM: 22%
[3]; human trypsin
  IC50: > 100 µM
[4]; 100 µM compound, read-out: Chymotrypsin % Inh at 100 µM
  inhibition at 100 µM: 0%
[4]; human chymotrypsin
  IC50: > 100 µM
[5]; 1 µM
  microsomal stability: 25 min
[5]
  half-life at 1 µM: 25.4 min

— PMC3793977, “High-Throughput Screening (HTS) and Hit Validation to Identify Small Molecule Inhibitors with Activity against NS3/4A proteases from Multiple Hepatitis C Virus Genotypes” (PLoS ONE, 2013)
